Test results: ChEMBL document CHEMBL1158846, “Three new bistetrahydrofuran acetogenins from the seeds of Annona spinescens” (J Nat Prod, 1998)
Values after ≈ are worked out from the molar mass of the structure shown.

Legend:
[1] = Cytotoxicity against african green monkey Vero cells; format: cell-based; details: chlorocebus sabaeus, read-out: ED50 (the source's name)
[2] = system: KB; assay: Cytotoxicity against human KB cells; format: functional

| SMILES | CC50 [1] | ED50 [2] |
| --- | --- | --- |
| CCCCCC[C@H](O)CCC[C@H](O)[C@H]1CC[C@H]([C@H]2CC[C@H]([C@H](O)CCCCCCCCCCCCC3=C[C@H](C)OC3=O)O2)O1 [SQUAMOCIN] | 10 ng/mL (≈ 16.1 nM) | 4 ×10⁻⁴ ug/ml |
| CCCCCCC(O)CCC[C@H](O)[C@@H]1CC[C@@H]([C@@H]2CC[C@H]([C@H](O)CCCCCCCCCCCCC3=C[C@H](C)OC3=O)O2)O1 (stereo not given in full) [CAROLIN A] | 2 ng/mL (≈ 3.21 nM) | 1 ×10⁻⁷ ug/ml |
| CCCCCC(O)CCCC[C@H](O)[C@@H]1CC[C@@H]([C@@H]2CC[C@H]([C@H](O)CCCCCCCCCCCCC3=C[C@H](C)OC3=O)O2)O1 (stereo not given in full) [CAROLIN B] | 3.7 ng/mL (≈ 5.94 nM) | 5 ×10⁻⁶ ug/ml |
| CCCCCCC(O)CCC[C@H](O)[C@@H]1CC[C@@H]([C@@H]2CC[C@H]([C@H](O)CCCCCCCCCCC3=C[C@H](C)OC3=O)O2)O1 (stereo not given in full) [CAROLIN C] | 50 ng/mL (≈ 84.1 nM) | 2 ×10⁻⁴ ug/ml |
| CCCCCC(O)C(O)CCC[C@H](O)[C@H]1CC[C@@H]([C@@H]2CC[C@@H]([C@@H](O)CCCCCCCCCCCCC3=C[C@H](C)OC3=O)O2)O1 (stereo not given in full) [SPINENCIN] | 6 ng/mL (≈ 9.39 nM) | 1 ×10⁻⁵ ug/ml |
